The results in this text go back to ChEMBL document CHEMBL3603820, “Discovery of a novel 2,3,11,11a-tetrahydro-1H-pyrazino[1,2-b]isoquinoline-1,4(6H)-dione series promoting neurogenesis of human neural progenitor cells” (Bioorg Med Chem Lett, 2015).

Each structure is given as a SMILES string. The source made the active and inactive calls. The calls are words filed in the database; no cut-off is given here.

A short description of data set [1]: (§1) Induction of neurogenesis in human H9-derived neuronal progenitor cells at 10 uM assessed as increase in Tuj1 positive cells. The format is functional, Neuronal progenitor cell.
Data set [2] can be described thus: Cmax in C57BL/6 mouse plasma at 13.4 mg/kg, ip. Also noted: dose 13.4 mg/kg, route intraperitoneal. Type of data set: ADME, organism-based.
Data set [3] can be described thus: Tmax in C57BL/6 mouse brain at 1.81 mg/kg, po. Type of data set: ADME, organism-based.
Data set [4] concerns Plasma. Kind of data set: Dose normalized AUC in C57BL/6 mouse plasma at 13.4 mg/kg, ip. The format is ADME, organism-based. The note with it: in vivo.
The subject of data set [5] is Plasma. Kind of data set: Dose normalized AUC in C57BL/6 mouse plasma at 1.81 mg/kg, po. Type of data set: ADME, organism-based. The note with it: in vivo.
Data set [6] is described as follows: Half life in C57BL/6 mouse plasma at 13.4 mg/kg, ip. The format is ADME, organism-based.
In data set [7] the test system is Mus musculus. Description: Induction of neurogenesis in C57BL/6 mouse assessed as increase in BrdU+NeuN+/BrdU+ cells in dentate gyrus at 8.5 mg/kg, ip qd for 7 days and measured on day 14 by immunohistochemistry relative to vehicle control. Type of data set: functional.
Data set [8] in a line: AUC (0 to t) in C57BL/6 mouse brain at 1.81 mg/kg, po. The format is ADME, organism-based.
The nature of data set [9]: Cmax in C57BL/6 mouse brain at 1.81 mg/kg, po. Also noted: dose 1.81 mg/kg, route oral. The format is ADME, organism-based.
Data set [10] can be described thus: Unbound fraction in C57BL/6 mouse brain. Type of data set: ADME, tissue-based. The note with it: brain tissue.
Data set [11] can be described thus: AUC (0 to t) in C57BL/6 mouse plasma at 1.81 mg/kg, po. The format is ADME, organism-based.
Data set [12] in a line: Tmax in C57BL/6 mouse plasma at 1.81 mg/kg, po. Type of data set: ADME, organism-based.
A short description of data set [13]: Ratio of drug level in brain to plasma in C57BL/6 mouse at 1.81 mg/kg, po. The format is ADME, organism-based. The note with it: read-out: BPR.
Data set [14] in a line: Cmax in C57BL/6 mouse plasma at 1.81 mg/kg, po. Type of data set: ADME, organism-based. Also noted: dose 1.81 mg/kg, route oral.
A short description of data set [15]: AUC (0 to t) in C57BL/6 mouse plasma at 13.4 mg/kg, ip. The format is ADME, organism-based.
The test system of data set [16] is Brain. Description: Dose normalized AUC in C57BL/6 mouse brain at 1.81 mg/kg, po. The note with it: in vivo. Type of data set: ADME, organism-based.
Data set [17] concerns Brain. Kind of data set: Drug concentration in C57BL/6 mouse brain at 13.4 mg/kg, ip. The format is ADME, organism-based. The note with it: in vivo, read-out: Drug uptake.
For data set [18], the system named is Plasma. Description: Plasma concentration in C57BL/6 mouse at 13.4 mg/kg, ip. Type of data set: ADME, organism-based. The note with it: in vivo.
Data set [19] can be described thus: Tmax in C57BL/6 mouse plasma at 13.4 mg/kg, ip. Type of data set: ADME, organism-based.
The subject of data set [20] is Mus musculus. Kind of data set: Induction of neurogenesis in C57BL/6 mouse assessed as increase in BrdU+NeuN+/BrdU+ cells in dentate gyrus at 8.5 mg/kg, ip qd for 7 days and measured on day 14 by immunohistochemistry relative to control. Type of data set: functional.
In data set [21] the test system is Neuronal progenitor cell. The description is as §1. Type of data set: functional.
In data set [22] the test system is Neuronal progenitor cell. Kind of data set: Induction of neurogenesis in human H9-derived neuronal progenitor cells at 0.3125 to 10 uM assessed as increase in Tuj1 protein levels incubated for 5 days by Western blotting method. The format is functional. On the technique in general: In western blotting, separated proteins are transferred to a membrane and probed.

Data set [23] is described as follows: Induction of neurogenesis in mouse neuronal progenitor cells at 0.1 to 10 uM assessed as increase in Tuj1 positive cells. The format is functional, Neuronal progenitor cell.
A short description of data set [24]: Toxicity in mouse neuronal progenitor cells at 0.1 to 10 uM assessed as increase in DAPI positive cells. The format is cell-based. The note with it: neuronal progenitor cell.
A short description of data set [25]: Ratio of drug level in brain to plasma in mouse. Type of data set: ADME, organism-based. The note with it: read-out: BPR.
Data set [26] is described as follows: Toxicity in human H9-derived neuronal progenitor cells at 0.1 to 10 uM assessed as increase in DAPI positive cells. Type of data set: cell-based. The note with it: neuronal progenitor cell.
Data set [27] is described as follows: Induction of neurogenesis in human H9-derived neuronal progenitor cells at 0.1 to 10 uM assessed as increase in Tuj1 positive cells. Type of data set: functional, Neuronal progenitor cell.

Consider `N#Cc1csc(COc2ccc3c(c2)CN2C(=O)CN(C4CCCC4)C(=O)[C@H]2C3)c1`, for which, in [1], the “fold change (FC)” value stood at 1.74.

On to `N#Cc1cccc(COc2ccc3c(c2)CN2C(=O)CN(C4CCNCC4(F)F)C(=O)[C@H]2C3)c1` (stereo not given in full), for which the “fold change (FC)” value in data set [1] came to 1.78.

As for `C[C@H]1C(=O)N2Cc3cc(OCc4cccc(C#N)c4)ccc3C[C@@H]2C(=O)N1C1CCCC1`, the “fold change (FC)” value in data set [1] amounted to 1.98.

Usually Cmax stands for the maximum level reached in the sampled fluid or tissue. Usually Tmax stands for the time at which the peak concentration occurs. The term half-life denotes the time in which the quantity being followed falls by half. For orientation: AUC(0-t) means exposure summed from dosing to a finite time, without extrapolation to infinity. Lower therefore signals less exposure. By fraction unbound is commonly meant free concentration divided by total concentration. Regarding `N#Cc1cccc(COc2ccc3c(c2)CN2C(=O)CN(C4CCCC4)C(=O)[C@H]2C3)c1`, the “fold change (FC)” value in data set [1] came out at 2.35; in the data set with Mus musculus [20], 1.3. For the same molecule, the Cmax in [2] was determined as 3500 ng/mL; in [9], 92 ng/mL; in data set [14], 126 ng/mL. The figures for the Tmax in [3], in data set [12] and in data set [19] were 1 h, 1 h and 0.25 h, respectively. Further, the figures for the AUC/dose in the data set with Plasma [4], in the data set with Plasma [5] and with Brain [16] were 794 ng·h/mL/mg/kg, 296 ng·h/mL/mg/kg and 155 ng·h/mL/mg/kg, respectively. The half-life in [6] is 4.95 h. In addition, the Activity in the data set with Mus musculus [7] was 11.7%. Moreover, the AUC(0-t) was found to be 280 ng·h/mL in [8], 534 ng·h/mL in [11] and 10500 ng·h/mL in [15]. The same molecule showed an unbound share (fraction unbound) in data set [10] of 0.02. Further, in [13], the Kp was found to be 0.1. Moreover, the figures for the concentration in the data set with Brain [17] and in the data set with Plasma [18] were 6.1 µM and 8.4 µM, respectively.

As for `COC[C@@H]1C(=O)N2Cc3cc(OCc4cccc(C#N)c4)ccc3C[C@@H]2C(=O)N1C1CCCC1`, the “fold change (FC)” value in data set [1] amounted to 2.36.

For `N#Cc1cccc(COc2ccc3c(c2)CN2C(=O)CN(C4CCOCC4)C(=O)[C@H]2C3)c1`, the “fold change (FC)” value with Neuronal progenitor cell [21] was “inactive”.

Turning to `O=C1[C@H]2Cc3ccc(OCc4cccc(F)c4)cc3CN2C(=O)CN1C1CCCC1`, the “fold change (FC)” value in [1] amounted to 1.83.

For the molecule `CCNC(=O)c1cccc(COc2ccc3c(c2)CN2C(=O)CN(C4CCCC4)C(=O)[C@H]2C3)c1`, the “fold change (FC)” value in [1] worked out at 1.65.

In the case of `N#Cc1cccc(COc2ccc3c(c2)CN2C(=O)CN(C4CCN(CC(F)F)CC4)C(=O)[C@H]2C3)c1`, the “fold change (FC)” value with Neuronal progenitor cell [21] was “inactive”.

For the molecule `O=C1[C@H]2Cc3ccc(OCc4cccc(Cl)c4)cc3CN2C(=O)CN1C1CCCC1`, in data set [1], the “fold change (FC)” value is listed as 2.29.

Consider `CCOC(=O)C[C@H]1CC[C@H](N2CC(=O)N3Cc4cc(OCc5cccc(C#N)c5)ccc4C[C@@H]3C2=O)CC1`, for which the “fold change (FC)” value in [1] is listed as 1.69.

`N#Cc1cccc(COc2ccc3c(c2)CN2C(=O)CN(C4CCN(CC(F)(F)F)CC4)C(=O)[C@H]2C3)c1`: in the data set with Neuronal progenitor cell [21], the “fold change (FC)” value was “inactive”.

With `N#Cc1cccc(COc2ccc3c(c2)CN2C(=O)CN(C4CCCC4)C(=O)[C@@H]2C3)c1`, the “fold change (FC)” value with Neuronal progenitor cell [21] was “inactive”.

On to `O=C1[C@H]2Cc3ccc(OCc4ccc(Cl)cc4)cc3CN2C(=O)CN1C1CCCC1`, for which the “fold change (FC)” value in [1] amounted to 2.09.

For the molecule `N#Cc1cccc(COc2ccc3c(c2)CN2C(=O)CN(C4CCCCC4)C(=O)[C@H]2C3)c1`, the “fold change (FC)” value in data set [1] was 2.02.

`N#Cc1cccc(CNc2ccc3c(c2)CN2C(=O)CN(C4CCCCC4)C(=O)[C@H]2C3)c1`: the “fold change (FC)” value in data set [1] worked out at 1.53.

In the case of `COC[C@H]1C(=O)N2Cc3cc(OCc4cccc(C#N)c4)ccc3C[C@@H]2C(=O)N1C1CCCC1`, the “fold change (FC)” value in [1] stood at 1.55.

Turning to `N#Cc1cccc(COc2ccc3c(c2)CN2C(=O)CN(CC4CC4)C(=O)[C@H]2C3)c1`, the “fold change (FC)” value in data set [1] worked out at 1.57.

For the molecule `O=C1[C@H]2Cc3ccc(OCc4cccc(N5CCOCC5)c4)cc3CN2C(=O)CN1C1CCCC1`, the “fold change (FC)” value in [1] amounted to 2.06.

Take `CN(Cc1cccc(C#N)c1)c1ccc2c(c1)CN1C(=O)CN(C3CCCCC3)C(=O)[C@H]1C2`: the “fold change (FC)” value in data set [1] came out at 1.67.

As for `N#Cc1cccc(COc2ccc3c(c2)CN2C(=O)CN(CC4CCC4)C(=O)[C@H]2C3)c1`, the “fold change (FC)” value in [1] amounted to 2.12.

Regarding `O=C1[C@H]2Cc3ccc(OCc4ccccc4)cc3CN2C(=O)CN1C1CCCC1`, the “fold change (FC)” value in data set [1] is listed as 2.07.

Take `N#Cc1cccc(COc2ccc3c(c2)CN2C(=O)CN(C4CCNCC4)C(=O)[C@H]2C3)c1`: the “fold change (FC)” value in the data set on Neuronal progenitor cell [21] was “inactive”.

For `N#Cc1cccc(COc2ccc3c(c2)CN2C(=O)CN(C4CCN(CCF)CC4)C(=O)[C@H]2C3)c1`, in [1], the “fold change (FC)” value amounted to 1.91.

For `N#Cc1cccc(COc2ccc3c(c2)CN2C(=O)[C@H](CO)N(C4CCCC4)C(=O)[C@H]2C3)c1`, in the data set on Neuronal progenitor cell [21], the “fold change (FC)” value is “inactive”.

On to `CCN(Cc1cccc(C#N)c1)c1ccc2c(c1)CN1C(=O)CN(C3CCCCC3)C(=O)[C@H]1C2`, for which the “fold change (FC)” value in data set [1] amounted to 1.45.

Consider `N#Cc1cccc(COc2ccc3c(c2)CN2C(=O)[C@@H](CO)N(C4CCCC4)C(=O)[C@H]2C3)c1`, for which the “fold change (FC)” value in data set [1] was 2.36.

For `C[C@@H]1C(=O)N2Cc3cc(OCc4cccc(C#N)c4)ccc3C[C@@H]2C(=O)N1C1CCCC1`, the “fold change (FC)” value in data set [1] turned out to be 2.41.

On to `N#Cc1cccc(OCc2ccc3c(c2)CN2C(=O)CN(C4CCCC4)C(=O)[C@H]2C3)c1`, for which the “fold change (FC)” value in data set [1] worked out at 2.

`N#Cc1cccc(COc2ccc3c(c2Br)CN2C(=O)CN(C4CCCC4)C(=O)[C@H]2C3)c1`: the results for the “fold change (FC)” value in data set [1], in [23] and in data set [27] were 1.9, 1.2 and 1.8, respectively. The Activity entry with Neuronal progenitor cell [22] is “Dose-dependent effect”; in [24], “Non-toxic”; in data set [26], “Non-toxic”. Further, the Kp in data set [25] is 0.5.
